Data on eight molecules can be found in patent US5786377A, “Pyrrolo[3,2-E]indol derivatives, process for the preparation thereof and applications” (Universidad de Santiago de Compostela, priority 1993, dated 1998).

≈ marks a conversion by molar mass, not a printed value.

The conditions of data set [1]: cited from earlier work.
For data set [2] the following is noted: compared with CC-1065; cited from earlier work.
Another data set has as its system cancer. The data set is described as follows: anticarcinogenic activity in vivo and toxicity, general statement on the biological activity studies. To be noted: in words; for toxicity: in vivo. An excerpt:
This makes them especially ideal for used as agents for the therapeutic treatment of cancer in its diverse manifestations and, especially, in cases of leukemia.

The test system of another data set is P388 leukemic tumor. The data set is described as follows: P388 antitumoral model in vivo, survival of leukemic mice (%C/T). The arrangement: species or system mouse. As for the experimental part:
Description of the P388 Antitumoral Model
Normally, 1×10^6 cells in ascitic fluid was implanted. i.p. in CD2 F1 mice. Treatment with the agent tested i.p. began one day after the tumor had been implanted and it is continued daily up to a total of 5 injections for synthetic products and of 9 injections for raw natural products. The results are expressed as percentage of the control survival time.
CDFl mice weighing 18-22 gr (+/-3 gr) were implanted on day 0 of the test period 0.1 ml. of a dilution of 1.0×10^7 tumor cells coming from DBA/2N mice used for the propagation of the tumor.
On day 1 of the test period the animals were grouped at randam in groups of six animals. Each group is weighed and the average weight is written down. Each compound to be tested in duluted in 4 lvels of dosis for each multidose test as of the determiantion of the highest non-toxic dose (v.g. 400 mg/kg; 100 mg/kg; 10 mg/kg.)
Administration of the test compounds is started on day 1 using volumns of 1/2 drug injected i.p. Injections are given on days 1 to 9 of the test period, unless it is indicated to the contrary. The animals are weighed on day 5, which is the one which in this system is considered the day of toxicity. Toxicity in this test system is defined as: […]
A. 34% deaths up to day 5--acute toxicity
B. C/T <85% --chronic toxicity
C. A negative average of the weight change of the animals >4 g up to day 5--chronic toxicity
The data obtained upon testing the compounds in vivo in comparison with the P388 leukemic tumor model in mice are shown in the following table:
Where %C/T means average survival of the tested group/average survival of […]

For data set [3] the following is noted: in words; cited from earlier work.
Another data set relates to MEL-28. The data set is described as follows: in vitro test, MEL-28. It counts as cell-based. To be noted: Homo sapiens, SK-MEL-28. An excerpt: (§1) On the other hand, the results of the tests in vitro carried out on compounds (IIIa) and (IIIb) were the following: […]
The test system of the next data set is HT-29. Briefly: in vitro test, HT-29. As to conditions: Homo sapiens. It counts as cell-based.
Excerpt: as §1

A further data set concerns A-549. The data set is described as follows: in vitro test, A-549. As to conditions: Homo sapiens, A549. The data set is classed as cell-based.
Excerpt: as §1

The subject of another data set is P-388. The data set is described as follows: in vitro test, P-388. It counts as cell-based. As to conditions: Mus musculus, P388.
Excerpt: as §1

Another data set concerns P388. As to conditions: cited from earlier work.

For `Cc1c[nH]c2c1C13CC1CN(C(=O)c1cc4cc(NC(=O)c5cc6ccccc6o5)ccc4[nH]1)C3=CC2=O` (stereo not drawn) [Adocelesine], the delayed lethality entry in data set [1] (mouse, in vivo) is reported as “without provoking delayed lethality”. Also, in data set [2], the “tumoral effectiveness versus the natural product” value is reported as “greatly exceeds the natural product in tumoral effectiveness”.

Consider `COC(=O)c1cn(C)c2c(O)cc3c(c12)C(CCl)CN3C(=O)c1cc2cc(OC)c(OC)c(OC)c2[nH]1` (stereo not drawn) [Compound (V), methyl 6-(5,6,7-trimethoxy-1H-indol-2-carbonyl)-8-chloromethyl-4-hydroxy-3-methyl-3,6,7,8-tetra-hydropyrrololo[3,2-e]indol-1-carboxylate], for which, in the data set with cancer, the toxicity entry was “very low toxicity” and the “anticarcinogenic activity in vivo” value is given as “high anticarcinogenic activity in vivo”. In the data set on P388 leukemic tumor (0.050 mg/kg i.p.), the “%C/T (average survival of the tested group/average survival of the controls and untreated ones)” value stood at 133.9%; the “%C/T activity class (significance mark)” value was “** (Significant activity (strong): C/T > = 175%)”.

In the case of `COC(=O)c1cn(C)c2c1C13CC1CN(C(=O)c1cc4cc(OC)c(OC)c(OC)c4[nH]1)C3=CC2=O` (stereo not drawn) [(VI), methyl 2-(5,6,7-trimethoxy-1H-indolz2-carbonyl)-5-methyl-4-oxo-1,2,4,5,8a-hexahydrocyclopropa[c]pyrrolo[3,2-e]indol-7-carboxylate], in the data set with cancer, the toxicity result is “very low toxicity” and the “anticarcinogenic activity in vivo” value is “high anticarcinogenic activity in vivo”. For the same molecule, in the data set on P388 leukemic tumor (0.500 mg/kg i.p.), the “%C/T (average survival of the tested group/average survival of the controls and untreated ones)” value is recorded as 210.9%; the “%C/T activity class (significance mark)” value is given as “** (Significant activity (strong): C/T > = 175%)”.

On to `COc1c(O)c2c(c3cc(C(=O)N4CCc5c4c(O)c(OC)c4[nH]c(C(=O)N6CC7CC78C6=CC(=O)c6[nH]cc(C)c68)cc54)[nH]c13)CCN2C(N)=O` (stereo not drawn) [CC-1065], for which the cytotoxic strength entry in data set [3] is recorded as “extremely strong cytoxine”. For the same molecule, in [1] (mice, therapeutic doses), the “toxicity (delayed deaths)” value is reported as “high toxicity, producing delayed deaths in mice at therapeutic doses”.

For `COC(=O)c1cn(C)c2c(OC(=O)c3ccc([N+](=O)[O-])cc3)cc3c(c12)C(CCl)CN3C(=O)c1cc2cc(NC(=O)c3cc4ccccc4o3)ccc2[nH]1` (stereo not drawn) [IIIb], the half-inhibitory concentration (IC50) (in general, the concentration that gives 50% inhibition) turned out to be 0.5 ng/mL (≈ 0.67 nM) in the data set with MEL-28, 0.5 ng/mL (≈ 0.67 nM) with HT-29, 0.1 ng/mL (≈ 0.134 nM) with A-549 and 0.02 ng/mL (≈ 0.0268 nM) in the data set with P-388.

For the molecule `COC(=O)c1cn(C)c2c(O)cc3c(c12)C(CCl)CN3C(=O)c1cc2cc(NC(=O)c3cc4ccccc4o3)ccc2[nH]1` (stereo not drawn) [Compound (III), methyl 6-{5-[(benzofuran-2-ylcarbonyl)-amino]1H-indol-2-carbonyl}-8-chloromethyl-4-hydroxy-3-methyl-3,6,7,8,tetrahydropyrrolo[3,2-e]indol-1-carboxylate], in the data set on cancer, the toxicity result was “very low toxicity” and the “anticarcinogenic activity in vivo” value is “high anticarcinogenic activity in vivo”. In the data set with P388 leukemic tumor (0.500 mg/kg i.p.), the “%C/T (average survival of the tested group/average survival of the controls and untreated ones)” value is on record as more than 391.3%.

Take `COC(=O)c1cn(C)c2c1C13CC1CN(C(=O)c1cc4cc(NC(=O)c5cc6ccccc6o5)ccc4[nH]1)C3=CC2=O` (stereo not drawn) [(IV), methyl 2-[5-[(benzofuran-2-ylcarbonyl)amino]-1H-indol-2-carbonyl]-5-methyl-4-oxo,1,2,4,5,8,8,a-hexahydrocyclopropa[c]pyrrolo[3,2-e]indol-7-carboxylate]: in the data set on cancer, the toxicity result is reported as “very low toxicity” and the “anticarcinogenic activity in vivo” value was “high anticarcinogenic activity in vivo”. In addition, in the data set with P388 leukemic tumor (0.300 mg/kg i.p.), the “%C/T (average survival of the tested group/average survival of the controls and untreated ones)” value came to 251.1%; the “%C/T activity class (significance mark)” value is recorded as “** (Significant activity (strong): C/T > = 175%)”.

Take `O=C(Nc1ccc2[nH]c(C(=O)N3CC4CC45C3=CC(=O)c3ccccc35)cc2c1)c1cc2ccccc2[nH]1` (stereo not drawn) [CBI-Ind2]: the “results in the P388 model in vivo” value in the data set on P388 is “very good results in the P388 model in vivo”.
